Results: patent US20030220521A1, “Renal-selective prodrugs for control of renal sympathetic nerve activity in the treatment of hypertension” (G.D. Searle & Co., priority 1989, published 2003)

How the values were obtained:
[1] = test system: gamma-glutamyl transpeptidase and acylase I; assay: Assay IV: metabolism of conjugate by purified transpeptidase and acylase; type: in vitro ADME
Description: […] The resulting suspension, diluted with buffer, was incubated in the presence of the Ex. #859 conjugate at 37° C. At various times aliquots were removed, deproteinized with an equal volume of cold trichloroacetic acid (25%) and centrifuged. The supernatant was injected onto a C-18 reverse-phase HPLC column and eluted isocratically with a mixture of acetonitrile and water (20:80 v/v) containing trifluoroacetic acid (0.05%). Eluted compounds were monitored by absorbance at 254 nm and compared to standards run under identical conditions. In the assay using pure kidney enzyme homogenate, the Ex. #859 conjugate was also incubated under the same conditions as described except that 5 mg of gamma-glutamyl transpeptidase (Sigma, 23 units/mg) and 10 mg of acylase I (Sigma, 4800 units/mg) were added in place of the homogenate. Analysis by HPLC was performed in a manner identical to that used for the kidney homogenate experiment.

male SHR = assay: Assay XIII: renal blood flow experiments in anesthetized SHR (renal denervation, bulbocapnine); type: in vivo, rat; details: for Mean arterial pressure / Renal Blood Flow: conjugate alone
Description: This experiment was run to determine the roles of the renal sympathetic nerves and dopamine in the antihypertensive response to Ex. #859. For renal blood flow experiments, male SHR (11-13 weeks of age; Harlan Sprague-Dawley, Inc., Indianapolis, Ind.) were anesthetized (Inactin, 100 mg/kg, i.p.), catheters were implanted in a jugular vein and carotid artery, and an electromagnetic flow probe (Carolina Medical Electronics, Inc., King, N.C.) was placed on the left renal artery. Care was taken not to damage the renal nerves. A tracheal catheter maintained airway patency. The SHR were placed on a heated pad to maintain normal body temperature (Harvard Apparatus, South Natick, Mass.). In one group of SHR (n=6) surgical renal denervation was performed (prior to implanting the flow probe) through a left flank incision by surgically stripping the renal artery and vein of adventitia and cutting all visible renal nerve bundles under a dissection microscope (×25) and coating the vessels with a solution of 10% phenol in 95% ethanol, as previously described (9,10). In a second group of SHR (n=6) bulbocapnine (a dopamine receptor antagonist) was infused at 100 μg/kg/min starting 30 minutes prior to injection of Ex. #859 (50 mg/kg, i.v.) and continued for the duration of the study. In a third group of SHR (n=6) Ex. #859 (50 mg/kg, i.v.) was administered alone. In a final group of SHR (n=6) vehicle (0.9% NaCl) was administered. SHR were allowed 60 minutes for stabilization after surgery. After the stabilization period, 15 minutes of control mean arterial pressure and renal blood flow were obtained. Mean arterial pressure and renal blood flow were recorded for one hour.

conscious SHR = assay: Assay XIII: antihypertensive experiments in conscious SHR (renal denervation, bulbocapnine); type: in vivo, rat
Description: For antihypertensive experiments, male SHR (11-13 weeks of age; Harlan Sprague-Dawley, Inc.; Indianapolis, Ind.) were habituated for 3-4 days in individual experimental cages, which became their home cages for the duration of the study. Five to seven days before experimentation, SHR were anesthetized with chloral hydrate (400 mg/kg; Sigma Chemical Co., St. Louis, Mo.) and catheters were implanted into a femoral artery and vein. The catheters were led to the back of the neck, exteriorized, and channeled through a tether and swivel system (Alice King Chatham, Los Angeles, Calif.). Surgical renal denervation was performed as above. […] In separate groups of conscious SHR, Ex. #859 (5 mg/kg/hr, n=6) was infused alone, Ex. #859 (5 mg/kg/hr, n=6) was coinfused with bulbocapnine (100 μg/kg/min), or Ex. #859 (10 mg/kg/hr, n=6) was infused 5-7 days after surgical renal denervation. Surgical renal denervation was performed as described above. After a one hour control measure of mean arterial pressure, compounds were infused for four hours and mean arterial pressure was measured continuously.

[2] = test system: DOCA hypertensive micropigs; assay: Assay XIV: chronic in vivo effects in DOCA hypertensive micropigs; design: species or system micropig; details: for Mean arterial pressure: 5 mg/kg/hr infusion
Description: This study examines the efficacy of Ex. #859 in deoxycorticosterone acetate ([…]) hypertensive micropigs (Charles River; 6 months of age). Micropigs were made hypertensive by implanting subcutaneously DOCA strips (100 mg/kg) under isoflurane anesthesia. Hypertension stabilizes after one month. Mean arterial pressure was measured using a Gould chart recorder and Statham P23dB transducers. After one month Ex. #859 conjugate was infused for three days at 5 mg/kg/hr).

anesthetized dog = assay: Assay XI: intrarenal administration of fusaric acid in anesthetized dogs (MAP, RBF, UNaV); type: in vivo
[3] = Dog #1, intrarenal infusion 1.25 mg/kg/min
[4] = Dog #2, intrarenal infusion 0.75 mg/kg/min
[5] = anesthetized dog, bolus intrarenal 0.5, 1.0 and 5.0 mg/kg

## CCCCc1ccc(C(=O)NNC(=O)CCC(NC(C)=O)C(=O)O)nc1 [Ex. #859, N-acetyl-L-glutamic acid, 5-[(5-butyl-2-pyridinyl)-carbonyl]hydrazide]
[1]; 3 h, pH 7.4
  Fusaric Acid formed from conjugate: 0.00 µg/mL
[1]; 3 h, pH 8.1
  Fusaric Acid formed from conjugate: 0.00 µg/mL
[1]; 24 h, pH 7.4
  Fusaric Acid formed from conjugate: 2.56 µg/mL
[1]; 24 h, pH 8.1
  Fusaric Acid formed from conjugate: 1.12 µg/mL
[1]; 72 h, pH 7.4
  Fusaric Acid formed from conjugate: 12.15 µg/mL
[1]; 72 h, pH 8.1
  Fusaric Acid formed from conjugate: 4.46 µg/mL
[1]; 96 h, pH 7.4
  Fusaric Acid formed from conjugate: 15.44 µg/mL
[1]; 96 h, pH 8.1
  Fusaric Acid formed from conjugate: 5.22 µg/mL
[1]; 120 h, pH 7.4
  Fusaric Acid formed from conjugate: 18.75 µg/mL
[1]; 120 h, pH 8.1
  Fusaric Acid formed from conjugate: 6.55 µg/mL
[1]; purified gamma-glutamyl transpeptidase and acylase I
  species present after incubation: only fusaric acid and the unreacted compound being present
Male SHR; anesthetized SHR, 50 mg/kg i.v. after surgical renal denervation
  effect on renal blood flow: not changed
Male SHR; anesthetized SHR, 50 mg/kg i.v. alone, 60 minutes after injection
  effect on renal blood flow: increased
Male SHR; anesthetized SHR, 50 mg/kg i.v. during bulbocapnine infusion (100 μg/kg/min)
  effect on renal blood flow: not changed
Male SHR; anesthetized SHR, 50 mg/kg i.v., all groups
  effect on mean arterial pressure: not changed
Male SHR; time 0 minutes
  Mean arterial pressure: 149 ± 8 mmHg
  Renal Blood Flow: 7 ± 2 mL/min
Male SHR; time 60 minutes
  Mean arterial pressure: 149 ± 7 mmHg
  Renal Blood Flow: 12 ± 2 mL/min
Conscious SHR; BULBO: 5 mg/kg/hr coinfused with bulbocapnine 100 μg/kg/min, 0 hours
  Mean arterial pressure: 168 ± 8
Conscious SHR; BULBO: 5 mg/kg/hr coinfused with bulbocapnine 100 μg/kg/min, 1 hour
  Mean arterial pressure: 158 ± 6
Conscious SHR; BULBO: 5 mg/kg/hr coinfused with bulbocapnine 100 μg/kg/min, 2 hours
  Mean arterial pressure: 148 ± 5
Conscious SHR; BULBO: 5 mg/kg/hr coinfused with bulbocapnine 100 μg/kg/min, 3 hours
  Mean arterial pressure: 140 ± 7
Conscious SHR; BULBO: 5 mg/kg/hr coinfused with bulbocapnine 100 μg/kg/min, 4 hours
  Mean arterial pressure: 140 ± 5
Conscious SHR; DNX: 10 mg/kg/hr after surgical renal denervation, 0 hours
  Mean arterial pressure: 157 ± 3
Conscious SHR; DNX: 10 mg/kg/hr after surgical renal denervation, 1 hour
  Mean arterial pressure: 155 ± 4
Conscious SHR; DNX: 10 mg/kg/hr after surgical renal denervation, 2 hours
  Mean arterial pressure: 53 ± 4
Conscious SHR; DNX: 10 mg/kg/hr after surgical renal denervation, 3 hours
  Mean arterial pressure: 150 ± 4
Conscious SHR; DNX: 10 mg/kg/hr after surgical renal denervation, 4 hours
  Mean arterial pressure: 147 ± 4
Conscious SHR; conscious SHR, 5 mg/kg/hr coinfused with bulbocapnine (100 μg/kg/min)
  effect on mean arterial pressure over a four hour period: lowered mean arterial pressure similar to Ex. #859 alone
Conscious SHR; conscious SHR, 10 mg/kg/hr, 5-7 days after surgical renal denervation
  antihypertensive response: prevented the antihypertensive response
Conscious SHR; conscious SHR, continuous infusion 5 mg/kg/hr alone
  effect on mean arterial pressure over a four hour period: antihypertensive
Conscious SHR; infused alone 5 mg/kg/hr, 0 hours
  Mean arterial pressure: 177 ± 6
Conscious SHR; infused alone 5 mg/kg/hr, 1 hour
  Mean arterial pressure: 172 ± 6
Conscious SHR; infused alone 5 mg/kg/hr, 2 hours
  Mean arterial pressure: 170 ± 7
Conscious SHR; infused alone 5 mg/kg/hr, 3 hours
  Mean arterial pressure: 164 ± 7
Conscious SHR; infused alone 5 mg/kg/hr, 4 hours
  Mean arterial pressure: 154 ± 6
[2]; Day 1
  Mean arterial pressure: 151 ± 4
[2]; Day 2
  Mean arterial pressure: 132 ± 4
[2]; Day 3
  Mean arterial pressure: 119 ± 3
[2]; conscious DOCA hypertensive micropigs, infusion 5 mg/kg/hr for three days
  effect on mean arterial pressure: normalized mean arterial pressure
other
  melting point: 191.5 to 192 °C

## CCCCc1ccc(C(=O)O)nc1 [Fusaric Acid, 5-n-butylpicolinic acid]
Anesthetized dog; [3]
  MAP: 136 mm Hg
  UNa V: 82 μEqlmin
  Δ RBF: 240 mL/min
Anesthetized dog; [4]
  MAP: 148 mm Hg
  UNa V: 13 μEqlmin
  Δ RBF: 315 mL/min
Anesthetized dog; [5]
  effect on mean arterial pressure: no significant effect
  effect on renal blood flow: dose-related increases
  effect on urinary sodium excretion: no significant effect
Anesthetized dog; anesthetized dog, bolus intrarenal injection 0.1 mg/kg
  effect on MAP, RBF and UNaV: no effect on any measure
Anesthetized dog; intrarenal bolus 0.1 mg/kg
  MAP: 136 mm Hg
  UNa V: 21.2 μEq/min
  Δ RBF: 0 mL/min
Anesthetized dog; intrarenal bolus 0.5 mg/kg
  MAP: 136 mm Hg
  UNa V: 23.8 μEq/min
  Δ RBF: +46 ml/min
Anesthetized dog; intrarenal bolus 1.0 mg/kg
  MAP: 138 mm Hg
  UNa V: 21.1 μEq/min
  Δ RBF: +58 ml/min
Anesthetized dog; intrarenal bolus 5.0 mg/kg
  MAP: 140 mm Hg
  UNa V: 34.8 μEq/min
  Δ RBF: +132 ml/min
